Consider six compounds from patent US4898943A, “Tricyclic triazolopyrimidine derivatives” (Daiichi Seiyaku Co., Ltd., priority 1987, dated 1990).

SMILES strings stand for the structures.

One series deals with PCA reaction. Nature of the series: PCA test (48-hour passive cutaneous anaphylaxis), oral administration. It counts as in vivo. The settings on record: Rattus norvegicus, 10 mg/kg orally, 30 minutes before antigen challenge, male Sprague-Dawley rats. As for the experimental part:
Each of Sprague-Dawley female rats weighing 170 to 250 g (CRJ-CD(SD), Charles River Japan Inc.) was intramuscularly administered with 5 mg/kg-body weight of egg albumin dissolved in saline, and then 1 ml of a suspension of Bordetella pertussis vaccine (2×10^10 organism) in saline was administered intraperitoneally to the rat. On day 10, 3,000 larvae animal of Nippostrongylus brasiliensis were subcutaneously administered to the rats. On day 24, blood was drawn from the rats to obtain an antiserum.
The antiserum was diluted with saline so as to provide a blue spot having a diameter of about 10 mm in the following control group.
Male sprague-Dawley rats weighing about 180 g (5 rats per group) were sensitized by injecting 0.05 ml of the diluted antiserum into the shaved dorsal skin. Fourty-eight hours later, 1 ml of saline containing 0.5% Evans blue and 5 mg of egg albumin was administered to each of the rats via a tail vein. After 30 minutes, the rats were sacrificed by decapitation. The dorsal skin was removed, and the amount of the dye in the blue spot area was measured in accordance with the method of Katayama et al., Microbiol. Immunol., Vol. 22, 89-101 (1978).
Ten milligrams of the test compound was suspended in 5 ml of a 0.5% CMC aqueous solution, and the suspension was orally administered to each of the rats in an amount of 10 mg/kg 30 minutes before the antigen challenge. On the other hand, a control group received only a 0.5% CMC solution.
The inhibitory activity on the PCA reaction in the treated group was calculated by the following equation: [formula] wherein V represents a mean value of the dye amount in the blue spot area in the control group; and W represents a mean value of the dye amount in the blue spot area in the treated group.

The next series is described as follows: Acute toxicity test. The settings on record: mouse, in vivo, po; p.o. in mice.

One may read the inhibition as how much of the control response was suppressed. As to `O=c1c2[nH]nnc2nc2sc(CC3CCCCC3)nn12` [Example 4], 10 mg/kg produced 77% inhibition in the series with PCA reaction.

As a reminder, the LD50 is the dose at which mortality reaches 50%. A lower LD50 goes with greater toxicity. `O=c1c2[nH]nnc2nc2sc(CCC3CCCC3)nn12` [Example 2] yielded an inhibition at 10 mg/kg in the series with PCA reaction of 62%. The same compound gave an LD50 in “Acute toxicity test” of 2000 to 4000 mg/kg. In the series on PCA reaction, `O=c1c2[nH]nnc2nc2sc(CCC3CCCCCC3)nn12` [Example 9] gave an inhibition at 10 mg/kg of 88%. Besides, the 50% lethal dose (LD50) in “Acute toxicity test” is over 4000 mg/kg. Compound `O=c1c2[nH]nnc2nc2sc(CCCC3CCCCC3)nn12` [Example 5] yielded an LD50 in the series “Acute toxicity test” of over 4000 mg/kg. In the series with PCA reaction, `O=c1c2[nH]nnc2nc2sc(CCC3CCCCC3)nn12` [Example 1, 6-(2-Cyclohexylethyl)-[1,3,4]thiadiazolo-[3,2-a][1,2,3]triazolo[4,5-d]pyrimidin-9-(1H)-one] returned an inhibition at 10 mg/kg of 81%. In “Acute toxicity test”, this compound returned an LD50 of over 4000 mg/kg. In the series with PCA reaction, `O=c1c2[nH]nnc2nc2sc(CCCC3CCCC3)nn12` [Example 3] had an inhibition at 10 mg/kg of 91%. The median lethal dose (LD50) in “Acute toxicity test” was over 4000 mg/kg.
